The subject of test [1] is cyclin D1. As to the kind of experiment: Cyclin D1 percentage degradation in Calu-1 cells (immunoblotting). Conditions: 16 hours. In kind it is cell-based. In short, it runs like this:
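Cells were rinsed once in cold PBS and lysed in cold RIPA buffer containing protease and phosphatase inhibitors, with gentle agitation at 4° C. for 30 min. Lysates were spun at 13,000 rpm for 10 min at 4° C., protein was measured by BCA, and samples were boiled in Laemmli buffer at 99° C. for 5 min before SDS-PAGE immunoblotting.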

For test [2], the target named is T1, CDK4 (Homo sapiens, UniProt P11802).
T1 construct: endogenous in cells; host or cells: Calu-1
T1 sequence (P11802 2-303 limits assumed): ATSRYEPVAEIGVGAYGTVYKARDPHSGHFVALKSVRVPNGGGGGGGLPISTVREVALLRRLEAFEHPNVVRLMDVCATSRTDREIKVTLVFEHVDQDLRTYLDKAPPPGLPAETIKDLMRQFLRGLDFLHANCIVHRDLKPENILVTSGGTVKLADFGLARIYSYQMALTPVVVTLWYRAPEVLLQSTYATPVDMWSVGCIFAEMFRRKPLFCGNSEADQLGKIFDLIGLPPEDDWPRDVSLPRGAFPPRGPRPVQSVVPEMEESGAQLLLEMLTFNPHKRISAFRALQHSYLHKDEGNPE
T1 sequence (P24385 whole entry partner): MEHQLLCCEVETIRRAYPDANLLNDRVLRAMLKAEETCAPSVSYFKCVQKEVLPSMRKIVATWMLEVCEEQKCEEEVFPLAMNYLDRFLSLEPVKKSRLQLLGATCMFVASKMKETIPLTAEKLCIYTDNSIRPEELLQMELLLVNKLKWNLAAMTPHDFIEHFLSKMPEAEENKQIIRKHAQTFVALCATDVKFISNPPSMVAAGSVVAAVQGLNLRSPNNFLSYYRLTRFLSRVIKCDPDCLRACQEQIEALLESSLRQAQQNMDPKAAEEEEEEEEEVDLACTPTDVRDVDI
T1 sequence (Q16531 2-1140 limits assumed, further chain): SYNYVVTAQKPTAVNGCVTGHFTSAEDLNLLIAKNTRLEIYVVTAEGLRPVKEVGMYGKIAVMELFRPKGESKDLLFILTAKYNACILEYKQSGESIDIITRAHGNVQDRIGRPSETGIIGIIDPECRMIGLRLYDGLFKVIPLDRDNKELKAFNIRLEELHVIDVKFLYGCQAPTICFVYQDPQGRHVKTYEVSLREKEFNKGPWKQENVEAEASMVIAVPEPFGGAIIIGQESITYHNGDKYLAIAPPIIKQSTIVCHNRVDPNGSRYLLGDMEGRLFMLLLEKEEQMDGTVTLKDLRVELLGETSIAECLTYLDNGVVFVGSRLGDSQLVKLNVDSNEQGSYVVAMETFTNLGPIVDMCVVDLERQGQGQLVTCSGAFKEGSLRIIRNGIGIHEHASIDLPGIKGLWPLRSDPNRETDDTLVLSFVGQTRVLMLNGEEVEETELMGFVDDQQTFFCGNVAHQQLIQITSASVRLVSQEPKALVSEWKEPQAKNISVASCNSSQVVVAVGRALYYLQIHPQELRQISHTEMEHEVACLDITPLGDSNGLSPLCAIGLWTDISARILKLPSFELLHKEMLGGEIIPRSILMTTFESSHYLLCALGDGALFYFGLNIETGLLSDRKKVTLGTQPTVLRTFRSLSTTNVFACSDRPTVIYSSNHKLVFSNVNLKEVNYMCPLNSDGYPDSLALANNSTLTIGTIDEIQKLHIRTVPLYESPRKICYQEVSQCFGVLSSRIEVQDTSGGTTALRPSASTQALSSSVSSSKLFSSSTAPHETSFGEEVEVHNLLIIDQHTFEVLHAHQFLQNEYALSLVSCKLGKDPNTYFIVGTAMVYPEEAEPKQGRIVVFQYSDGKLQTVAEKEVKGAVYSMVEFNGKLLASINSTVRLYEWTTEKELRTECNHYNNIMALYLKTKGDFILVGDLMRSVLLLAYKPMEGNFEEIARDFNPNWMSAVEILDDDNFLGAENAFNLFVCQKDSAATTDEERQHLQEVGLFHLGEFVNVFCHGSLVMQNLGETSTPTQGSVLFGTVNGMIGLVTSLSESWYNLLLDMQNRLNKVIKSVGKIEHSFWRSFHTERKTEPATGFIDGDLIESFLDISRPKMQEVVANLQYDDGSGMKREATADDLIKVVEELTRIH
Description: CDK4 percentage degradation in Calu-1 cells (immunoblotting). Type of test: cell-based. Conditions: for inhibition at 0.2 µM: read-out: CDK4 Degradation (200 nM). In short, it runs like this:
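Cultured cells were rinsed once in cold PBS and lysed in cold RIPA buffer containing protease and phosphatase inhibitors, with gentle agitation at 4° C. for 30 min. Lysates were centrifuged at 13,000 rpm for 10 min at 4° C., and protein was quantified by BCA. Samples were then separated by SDS-PAGE, detected with ECL, and the CDK4 bands quantified in Image Lab.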

Read-outs that look alike come from different tables or passages of the source. Bounds are passed on as bounds.

On to `CC(=O)c1c(C)c2cnc(Nc3ccc(N4CCN(CCCCCOCCOCCNc5cccc(C(=O)Nc6nc(C)c(C)s6)c5C)CC4)cn3)nc2n(C2CCCC2)c1=O` [CPD-271, 3-((2-(2-((5-(4-(6-((6-Acetyl-8-cyclopentyl-5-methyl-7-oxo-7,8-dihydropyrido[2,3-d]pyrimidin-2-yl)amino)pyridin-3-yl)piperazin-1-yl)pentyl)oxy)ethoxy)ethyl)amino)-N-(4,5-dimethylthiazol-2-yl)-2-methylbenzamide], for which, in test [1], the “CyclinD1 Degradation (200 nM)” value was “D (protein percentage degradation <30%)”. The inhibition at 0.2 µM in test [2] (Calu-1, 16 h) was less than 30%.
`CNc1ccc(C(=O)Nc2ccc(C)c(C3CC3)n2)c(NCCCCCNC(=O)CN2CCN(c3ccc(Nc4ncc5c(C)c(C(C)=O)c(=O)n(C6CCCC6)c5n4)nc3)CC2)c1` [CPD-371, 2-((5-(2-(4-(6-((6-Acetyl-8-cyclopentyl-5-methyl-7-oxo-7,8-dihydropyrido[2,3-d]pyrimidin-2-yl)amino)pyridin-3-yl)piperazin-1-yl)acetamido)pentyl)amino)-N-(6-cyclopropyl-5-methylpyridin-2-yl)-4-(methylamino)benzamide]: the “CyclinD1 Degradation (200 nM)” value in test [1] is listed as “A (protein percentage degradation >=80%)”. Also, the inhibition at 0.2 µM in test [2] (Calu-1 cells, 200 nM, 16 hours) fell in the range of 50 to 80%.
In the same order, the values of `CC(=O)c1c(C)c2cnc(Nc3ccc(N4CCN(CC(=O)NCCCCCCC(=O)Nc5ccccc5C(=O)Nc5nc(C)c(C)s5)CC4)cn3)nc2n(C2CCCC2)c1=O` [CPD-169, 2-(7-(2-(4-(6-((6-Acetyl-8-cyclopentyl-5-methyl-7-oxo-7,8-dihydropyrido[2,3-d]pyrimidin-2-yl)amino)pyridin-3-yl)piperazin-1-yl)acetamido)heptanamido)-N-(4,5-dimethylthiazol-2-yl)benzamide] are “D (protein percentage degradation <30%)” and less than 30%.
For `CC(=O)c1c(C)c2cnc(Nc3ccc(N4CCN(CC(=O)NCCOCCOCCC(=O)Nc5ccccc5C(=O)Nc5ccc(C6CC6)cn5)CC4)cn3)nc2n(C2CCCC2)c1=O` [CPD-184, 2-(3-(2-(2-(2-(4-(6-((6-Acetyl-8-cyclopentyl-5-methyl-7-oxo-7,8-dihydropyrido[2,3-d]pyrimidin-2-yl)amino)pyridin-3-yl)piperazin-1-yl)acetamido)ethoxy)ethoxy)propanamido)-N-(5-cyclopropylpyridin-2-yl)benzamide], in that order: “A (protein percentage degradation >=80%)” and 50 to 80%.
Turning to `Cc1nc(NC(=O)c2ccccc2NC(=O)CCCCNC(=O)CN2CCN(c3ccc(Nc4ncc5cc6n(c5n4)C4(CCCCC4)CNC6=O)nc3)CC2)sc1C` [CPD-317, N-(4,5-Dimethylthiazol-2-yl)-2-(5-(2-(4-(6-((6′-oxo-7′,8′-dihydro-6′H-spiro[cyclohexane-1,9′-pyrazino[1′,2′:1,5]pyrrolo[2,3-d]pyrimidin]-2′-yl)amino)pyridin-3-yl)piperazin-1-yl)acetamido)pentanamido)benzamide], the “CyclinD1 Degradation (10 μM)” value in test [1] (10 μM) is “A (protein percentage degradation >= 80%)”. Besides, the inhibition at 10 µM in test [2] (Calu-1 cells, 10 μM, 16 hours, read-out: CDK4 Degradation (10 μM)) was 50 to 80%.
Regarding `CC(=O)c1c(C)c2cnc(Nc3ccc(N4CCN(C(=O)CCCC(=O)Nc5ccccc5C(=O)Nc5nc(C)c(C)s5)CC4)cn3)nc2n(C2CCCC2)c1=O` [CPD-159, 2-(5-(4-(6-((6-Acetyl-8-cyclopentyl-5-methyl-7-oxo-7,8-dihydropyrido[2,3-d]pyrimidin-2-yl)amino)pyridin-3-yl)piperazin-1-yl)-5-oxopentanamido)-N-(4,5-dimethylthiazol-2-yl)benzamide], in test [1], the “CyclinD1 Degradation (200 nM)” value is listed as “D (protein percentage degradation <30%)”. Further, the inhibition at 0.2 µM in test [2] (Calu-1, 16 h) lay within 30 to 50%.

These data come from US20250235543A1, “MODIFIED PROTEINS AND PROTEIN DEGRADERS” (Cullgen (Shanghai), Inc., priority 2021, published 2025).
